These results are taken from ChEMBL document CHEMBL1201862, “PubChem BioAssay data set” (2004).

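Cells were grown in 96-well plates and exposed to each compound for 48 hours at five concentrations; endpoints were interpolated linearly between bracketing concentrations, or set to the highest concentration if not reached. GI50 marks 50% less growth.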 Activity calls are given as the source filed them. Rule as the data show it: active = GI50 up to about 1.1 µM and inactive = higher.

Test systems include MOLT-4; SK-OV-3; NCI-H460; NCI-H226; HCT-15; EKVX; KM12; HOP-92; SF-295; SW-620; CAKI-1; Malme-3M; A549; MDA-MB-435; HT-29; SNB-19; HOP-62; SK-MEL-28.
Experiment in all cases: growth of human tumour cells (NCI), 48 h

In the case of `COC(CNC(=O)C(C)NC(=O)C(C)NC(=O)c1ccccc1)OC` (configuration not stated), the GI50 in the assay on MOLT-4 was > 100 µM (inactive); in the assay on SK-OV-3 it was > 100 µM (inactive); in the assay with NCI-H460, > 100 µM (inactive); in the assay with NCI-H226, > 100 µM (inactive); with HCT-15, more than 100 µM; in the assay on EKVX it was > 100 µM (inactive). In addition, the GI50 in the assay on KM12, in the assay with HOP-92, in the assay on SF-295, in the assay on SW-620, in the assay with CAKI-1 and with Malme-3M was > 100 µM (inactive) in each case. Also, the GI50 with A549, in the assay on MDA-MB-435 and in the assay on HT-29 was > 100 µM (inactive) in each case.
Turning to `COc1ccc(C(=O)NCCC2CN(S(=O)(=O)C(F)(F)F)c3ccccc32)c(OC)c1` (configuration not stated), the GI50 in the assay with MOLT-4 was 29.1 µM (inactive); with SK-OV-3, > 100 µM (inactive); in the assay on NCI-H460, 33.6 µM (inactive); with SNB-19 it was 54.5 µM (inactive); in the assay on HCT-15, 57.4 µM; in the assay on EKVX, 39 µM (inactive). Besides, the GI50 was 21.3 µM (inactive) in the assay with KM12; 61.4 µM (inactive) with HOP-92; 68.9 µM (inactive) in the assay with SF-295; 35.8 µM (inactive) in the assay on SW-620; 88.5 µM (inactive) in the assay with HOP-62; > 100 µM (inactive) in the assay with CAKI-1. Moreover, the GI50 in the assay with SK-MEL-28 was 51.2 µM (inactive); in the assay with Malme-3M, 7.06 µM (inactive); in the assay on A549 it was 52.1 µM (inactive); in the assay with MDA-MB-435, 30.1 µM (inactive); in the assay on HT-29 it was 22.7 µM (inactive).
`CC1(C)CCCC(C)(C2CCC3(C)C2C(O)CC2C4(C)CCC(O)C(C)(C)C4CCC23C)O1` (configuration not stated): the GI50 is 93.1 µM (inactive) with MOLT-4; 46.2 µM (inactive) in the assay on SK-OV-3; 56.6 µM (inactive) in the assay with NCI-H460; > 100 µM (inactive) with NCI-H226; 42.6 µM (inactive) in the assay on SNB-19; more than 100 µM in the assay on HCT-15. The GI50 in the assay with EKVX was > 100 µM (inactive); in the assay on KM12, > 100 µM (inactive); in the assay with HOP-92, 76.6 µM (inactive); in the assay with SF-295 it was 52.1 µM (inactive); in the assay with SW-620 it was > 100 µM (inactive); in the assay on CAKI-1, 42.7 µM (inactive). In addition, the GI50 with SK-MEL-28 is > 100 µM (inactive); in the assay on Malme-3M, 98.6 µM (inactive); with A549, > 100 µM (inactive); in the assay with MDA-MB-435, > 100 µM (inactive); in the assay with HT-29, 78.9 µM (inactive).
Turning to `S=c1sscc1N1CCSc2ssc(=S)c21`, the GI50 with MOLT-4 was > 100 µM (inactive); in the assay on NCI-H460, > 100 µM (inactive); in the assay on NCI-H226, 67.8 µM (inactive); in the assay on SNB-19 it was 18.8 µM (inactive); in the assay with HCT-15, 47.5 µM; in the assay on EKVX it was 16.6 µM (inactive). Moreover, the GI50 in the assay with KM12 is > 100 µM (inactive); with HOP-92, 8.36 µM (inactive); in the assay with SW-620, > 100 µM (inactive); in the assay with CAKI-1, > 100 µM (inactive); in the assay with SK-MEL-28 it was > 100 µM (inactive); in the assay on Malme-3M, > 100 µM (inactive). In addition, the GI50 was 48.6 µM (inactive) with A549, > 100 µM (inactive) in the assay on MDA-MB-435 and > 100 µM (inactive) with HT-29.
On to `COC(=O)C1CC(C=[N+](C)C)=C(SC)N1` (configuration not stated), for which the GI50 in the assay with MOLT-4 is > 100 µM (inactive); in the assay on SK-OV-3 it was > 100 µM (inactive); with NCI-H460, 98.2 µM (inactive); in the assay on SNB-19, > 100 µM (inactive); in the assay with HCT-15 it was more than 100 µM; with EKVX, > 100 µM (inactive). Further, the GI50 in the assay with KM12, with HOP-92, in the assay with SF-295, with SW-620, with HOP-62 and in the assay on CAKI-1 was > 100 µM (inactive) each time. The GI50 in the assay on SK-MEL-28, in the assay with Malme-3M, with MDA-MB-435 and with HT-29 was > 100 µM (inactive) throughout.
Turning to `CC12CC(OC(=O)[C@]1(C)O)[C@@H]([C@]1(O)CC[C@H]3[C@@H]4C[C@H]5O[C@]56[C@@H](O)C=CC(=O)[C@]6(C)[C@H]4CC[C@@]31C)C2` (some centres not stated), the GI50 is 2.54 µM (inactive) in the assay on MOLT-4; 34.1 µM (inactive) in the assay with SK-OV-3; 12.3 µM (inactive) in the assay with NCI-H460; 40.7 µM (inactive) in the assay with NCI-H226; 40.1 µM (inactive) with SNB-19; 7.33 µM with HCT-15. In addition, the GI50 in the assay on EKVX is 2.84 µM (inactive); in the assay with KM12, 14.4 µM (inactive); with HOP-92 it was 2.92 µM (inactive); in the assay on SF-295 it was 33.7 µM (inactive); in the assay with SW-620, 3.18 µM (inactive); in the assay with HOP-62, 28.9 µM (inactive). For the same compound, the GI50 in the assay with CAKI-1 is 9.59 µM (inactive); in the assay on SK-MEL-28, 11.7 µM (inactive); in the assay on A549 it was 30.5 µM (inactive); with MDA-MB-435, 7.4 µM (inactive); in the assay on HT-29, 4.03 µM (inactive).
Turning to `Cc1cc(-n2nnc(C(=O)O)c2-c2ccccc2)c2ccc(Cl)cc2n1`, the GI50 in the assay on MOLT-4 was 17.5 µM (inactive); in the assay on SK-OV-3 it was > 100 µM (inactive); with NCI-H460 it was > 100 µM (inactive); in the assay with NCI-H226 it was > 100 µM (inactive); in the assay on SNB-19 it was > 100 µM (inactive); in the assay on HCT-15, more than 100 µM. Moreover, the GI50 in the assay with EKVX, in the assay with KM12, in the assay on HOP-92, in the assay on SF-295, with SW-620 and in the assay with CAKI-1 was > 100 µM (inactive) each time. In addition, the GI50 with SK-MEL-28, in the assay on Malme-3M, with A549, in the assay on MDA-MB-435 and with HT-29 was > 100 µM (inactive) each time.
`CCOC(=O)c1c(-c2ccc(Cl)cc2)c(C#N)c(=S)n(C2OC(CO)C(O)C(O)C2O)c1-c1ccccc1` (configuration not stated): the GI50 was 13.5 µM (inactive) with MOLT-4; 28.3 µM (inactive) in the assay on SK-OV-3; 26.9 µM (inactive) in the assay with NCI-H460; 22.8 µM (inactive) in the assay on SNB-19; 29.9 µM in the assay with HCT-15; 34.5 µM (inactive) in the assay on KM12. Moreover, the GI50 is 18.9 µM (inactive) in the assay with HOP-92; 20.4 µM (inactive) in the assay on SF-295; 18.5 µM (inactive) with SW-620; 20.3 µM (inactive) in the assay on HOP-62; 29.8 µM (inactive) in the assay with CAKI-1; 17.3 µM (inactive) with SK-MEL-28. For the same compound, the GI50 in the assay on Malme-3M is 40.8 µM (inactive); in the assay with A549, 34.2 µM (inactive); with MDA-MB-435, 21.3 µM (inactive); in the assay with HT-29, 17.9 µM (inactive).
On to `CCCCN(C)C(=O)C1=C(C)NC(C)=C(C(=O)N(C)CCCC)C1`, for which the GI50 with MOLT-4 is > 100 µM (inactive); with SK-OV-3 it was > 100 µM (inactive); in the assay on NCI-H460 it was > 100 µM (inactive); in the assay with NCI-H226, > 100 µM (inactive); in the assay on SNB-19, > 100 µM (inactive); in the assay on HCT-15, more than 100 µM. Moreover, the GI50 in the assay with EKVX, in the assay on KM12, in the assay on HOP-92, in the assay with SF-295, in the assay on SW-620 and with HOP-62 was > 100 µM (inactive) throughout. The GI50 with CAKI-1, in the assay with SK-MEL-28, in the assay with A549, with MDA-MB-435 and in the assay on HT-29 was > 100 µM (inactive) in each case.
